Data on 36 compounds can be found in ChEMBL document CHEMBL2169775, “Tacrine-ferulic acid-nitric oxide (NO) donor trihybrids as potent, multifunctional acetyl- and butyrylcholinesterase inhibitors” (J Med Chem, 2012).

What is called IC50 is the concentration that gives 50% inhibition. Lower therefore signals higher potency. Usually EC50 stands for the concentration at which the effect is half-maximal. Higher therefore signals a less potent agent.

The structures appear in SMILES notation. Activity calls are given as the source filed them. The rule behind the calls is not given here.

The target in one data set is Acetylcholinesterase (Electrophorus electricus, UniProt O42275).
Sequence of Acetylcholinesterase (O42275 whole entry): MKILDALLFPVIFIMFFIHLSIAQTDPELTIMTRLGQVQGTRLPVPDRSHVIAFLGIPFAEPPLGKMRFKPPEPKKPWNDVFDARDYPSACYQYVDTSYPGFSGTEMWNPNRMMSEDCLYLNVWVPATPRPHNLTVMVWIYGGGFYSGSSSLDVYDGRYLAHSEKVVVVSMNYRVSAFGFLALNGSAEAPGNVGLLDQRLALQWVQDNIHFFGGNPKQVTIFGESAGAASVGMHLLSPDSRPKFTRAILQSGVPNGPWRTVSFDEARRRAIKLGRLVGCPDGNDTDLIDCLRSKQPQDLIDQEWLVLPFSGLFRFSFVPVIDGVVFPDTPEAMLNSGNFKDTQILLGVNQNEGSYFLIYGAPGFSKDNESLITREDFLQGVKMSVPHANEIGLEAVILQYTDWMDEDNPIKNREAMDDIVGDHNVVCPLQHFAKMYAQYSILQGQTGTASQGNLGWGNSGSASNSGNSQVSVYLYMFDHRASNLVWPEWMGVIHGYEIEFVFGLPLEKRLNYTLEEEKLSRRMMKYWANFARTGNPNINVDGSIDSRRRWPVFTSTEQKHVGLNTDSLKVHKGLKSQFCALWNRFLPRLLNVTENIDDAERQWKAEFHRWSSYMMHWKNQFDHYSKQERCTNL
The test system of the next data set is Aorta. Description: tissue or blood. The conditions noted are these: Rattus norvegicus.
A short description of data set [1]: Induction of NO release in phosphate buffer assessed as inorganic nitrite level at pH 7.4 at 10^-4 M measured at 30 mins by Griess assay in presence of L-cysteine. The data set is classed as physicochemical. The following applies: pH 7.4, 0.5 h, 100 µM.
The subject of data set [2] is Radical scavenging activity. Description: Antioxidant activity assessed as DPPH free radical scavenging activity at 2 mM relative to ferulic acid. Type of data set: functional. A general note: DPPH is a stable violet radical that fades when it is reduced.
The next data set has as its target Cholinesterase (Equus caballus, UniProt P81908).
Data set [3] is described as follows: Induction of NO release in phosphate buffer assessed as inorganic nitrite level at pH 7.4 at 10^-4 M measured at 10 mins by Griess assay in presence of L-cysteine. The data set is classed as physicochemical. The conditions noted are these: pH 7.4, 10 min, 100 µM. (In general: The Griess reaction detects nitrite, a stable product of nitric oxide.)
The target of data set [4] is Acetylcholinesterase (Electrophorus electricus) (UniProt O42275). Description: Mixed inhibition of eel AChE using acetylthiocholine iodide as substrate at 1 to 10 nM after 4 mins by Lineweaver-Burk plot analysis.
Sequence of Acetylcholinesterase (Electrophorus electricus) (O42275 24-633 limits assumed): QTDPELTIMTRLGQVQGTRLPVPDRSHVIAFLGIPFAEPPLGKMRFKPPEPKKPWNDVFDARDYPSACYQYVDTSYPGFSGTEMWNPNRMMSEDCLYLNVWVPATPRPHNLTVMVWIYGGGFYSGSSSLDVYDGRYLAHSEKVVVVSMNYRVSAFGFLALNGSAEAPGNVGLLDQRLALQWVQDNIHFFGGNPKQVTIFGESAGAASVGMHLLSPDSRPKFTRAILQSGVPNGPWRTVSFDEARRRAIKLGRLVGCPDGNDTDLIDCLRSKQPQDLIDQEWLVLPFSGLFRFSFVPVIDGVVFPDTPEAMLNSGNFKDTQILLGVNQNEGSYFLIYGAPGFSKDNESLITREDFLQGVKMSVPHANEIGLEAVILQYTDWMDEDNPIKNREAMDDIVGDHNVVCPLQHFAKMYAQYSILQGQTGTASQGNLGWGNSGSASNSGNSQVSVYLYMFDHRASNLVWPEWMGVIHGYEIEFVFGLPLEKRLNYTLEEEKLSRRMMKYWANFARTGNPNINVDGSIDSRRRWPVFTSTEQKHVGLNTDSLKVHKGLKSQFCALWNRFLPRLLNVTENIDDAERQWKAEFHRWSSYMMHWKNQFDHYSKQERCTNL
Data set [5] concerns the target Cholinesterase (Equus caballus) (UniProt P81908). Description: Competitive inhibition of equine serum BuChE using butyrylthiocholine iodide as substrate at 1 to 10 nM after 4 mins by Ellman's method. For orientation: In Ellman's method for cholinesterases, released thiocholine reacts with DTNB.

Sequence of Cholinesterase (P81908 whole entry): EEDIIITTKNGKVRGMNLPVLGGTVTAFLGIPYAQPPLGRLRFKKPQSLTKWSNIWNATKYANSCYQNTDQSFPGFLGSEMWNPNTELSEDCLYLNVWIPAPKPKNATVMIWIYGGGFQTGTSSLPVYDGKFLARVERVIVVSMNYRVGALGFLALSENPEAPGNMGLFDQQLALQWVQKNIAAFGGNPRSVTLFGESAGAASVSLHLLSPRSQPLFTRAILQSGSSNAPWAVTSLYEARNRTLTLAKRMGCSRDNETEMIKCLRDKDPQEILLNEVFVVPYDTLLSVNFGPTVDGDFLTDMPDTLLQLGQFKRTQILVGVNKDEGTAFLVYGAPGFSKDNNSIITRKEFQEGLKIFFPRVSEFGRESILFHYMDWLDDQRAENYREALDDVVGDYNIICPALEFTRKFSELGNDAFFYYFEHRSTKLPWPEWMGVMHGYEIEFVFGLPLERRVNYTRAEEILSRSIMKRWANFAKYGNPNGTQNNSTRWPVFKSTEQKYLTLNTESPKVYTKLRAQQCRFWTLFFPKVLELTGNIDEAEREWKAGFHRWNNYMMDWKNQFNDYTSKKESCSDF
Sequence of Cholinesterase (Equus caballus) (P81908 whole entry): as above
Description for Aorta: Vasorelaxant activity in rat aortic rings assessed as reduction of norepinephrine-induced contraction

For the compound `COc1cc(/C=C/C(=O)NCCCCCCCCNc2c3c(nc4ccccc24)CCCC3)ccc1OCCO[N+](=O)[O-]`, the figures for the IC50 against Acetylcholinesterase and at Cholinesterase were 0.0055 µM and 0.0016 µM, respectively. Moreover, the EC50 with Aorta came out at 234 µM. Further, the Activity in data set [1] was 0.275 µg/mL; in data set [2], under 1%; in data set [3], 0.145 µg/mL.

Take `COc1cc(/C=C/C(=O)NCCNc2c3c(nc4ccccc24)CCCC3)ccc1OCCCO[N+](=O)[O-]`: the IC50 on Acetylcholinesterase amounted to 0.0199 µM; against Cholinesterase it was 0.0084 µM. For the same compound, the Activity in data set [2] was under 1%.

Regarding `COc1cc(/C=C/C(=O)O)ccc1OCCCCCCO[N+](=O)[O-]`, the IC50 against Acetylcholinesterase and against Cholinesterase was over 10 µM each time.

In the case of `COc1cc(/C=C/C(=O)NCCCNc2c3c(nc4ccccc24)CCCC3)ccc1O`, the results for the IC50 on Acetylcholinesterase and against Cholinesterase were 0.0567 µM and 0.0311 µM, respectively. This compound returned an EC50 with Aorta of 2050 µM.

With `COc1cc(/C=C/C(=O)NCCCCCCCCNc2c3c(nc4ccccc24)CCCC3)ccc1O`, the IC50 worked out at 0.0169 µM against Acetylcholinesterase and 0.0274 µM at Cholinesterase.

Consider `NCCNc1c2c(nc3ccccc13)CCCC2`, for which the IC50 is 0.0714 µM against Acetylcholinesterase and 0.0309 µM against Cholinesterase.

For the compound `NCCCCCCNc1c2c(nc3ccccc13)CCCC2`, the IC50 on Acetylcholinesterase was 0.0237 µM; at Cholinesterase it was 0.0066 µM.

Consider `NCCCCNc1c2c(nc3ccccc13)CCCC2`, for which the IC50 on Acetylcholinesterase was 0.0393 µM; against Cholinesterase it was 0.0229 µM.

For `COc1cc(/C=C/C(=O)NCCCCNc2c3c(nc4ccccc24)CCCC3)ccc1OCCCCO[N+](=O)[O-]`, the values for the IC50 against Acetylcholinesterase and on Cholinesterase were 0.0195 µM and 0.0047 µM, respectively. In data set [2], the Activity was under 1%.

Turning to `COc1cc(/C=C/C(=O)NCCNc2c3c(nc4ccccc24)CCCC3)ccc1OCCCCO[N+](=O)[O-]`, the IC50 against Acetylcholinesterase is 0.0271 µM; at Cholinesterase, 0.0076 µM. Besides, in data set [2], the Activity was under 1%.

Take `COc1cc(/C=C/C(=O)NCCCCCCNc2c3c(nc4ccccc24)CCCC3)ccc1OCCO[N+](=O)[O-]`: the values for the IC50 at Acetylcholinesterase and against Cholinesterase were 0.0083 µM and 0.0052 µM, respectively. The Activity in data set [2] was under 1%.

With `COc1cc(/C=C/C(=O)NCCCCNc2c3c(nc4ccccc24)CCCC3)ccc1OCCO[N+](=O)[O-]`, the IC50 against Acetylcholinesterase was determined as 0.0221 µM; on Cholinesterase, 0.0202 µM. Further, the Activity in data set [2] was under 1%.

Turning to `COc1cc(/C=C/C(=O)NCCCCCCNc2c3c(nc4ccccc24)CCCC3)ccc1OCCCO[N+](=O)[O-]`, the figures for the IC50 on Acetylcholinesterase and against Cholinesterase were 0.0044 µM and 0.0056 µM, respectively. In addition, in data set [2], the Activity is under 1%.

Take `COc1cc(/C=C/C(=O)O)ccc1OCCO[N+](=O)[O-]`: the IC50 on Acetylcholinesterase and at Cholinesterase was over 10 µM in each case.

`COc1cc(/C=C/C(=O)NCCCCCCCCNc2c3c(nc4ccccc24)CCCC3)ccc1OCCCO[N+](=O)[O-]`: the figures for the IC50 against Acetylcholinesterase and against Cholinesterase were 0.0101 µM and 0.001 µM, respectively. Besides, in data set [2], the Activity was under 1%.

As for `COc1cc(/C=C/C(=O)NCCCNc2c3c(nc4ccccc24)CCCC3)ccc1OCCCO[N+](=O)[O-]`, the IC50 is 0.0109 µM against Acetylcholinesterase and 0.0177 µM on Cholinesterase. Besides, in the data set on Aorta, the EC50 was determined as 34.3 µM. For the same compound, the figures for the Activity in data set [1], in data set [2] and in data set [3] were 0.305 µg/mL, under 1% and 0.241 µg/mL, respectively. The inhibition entry in data set [4] and in data set [5] was “Active” each time.

With `COc1cc(/C=C/C(=O)NCCCNc2c3c(nc4ccccc24)CCCC3)ccc1OCCCCO[N+](=O)[O-]`, the IC50 against Acetylcholinesterase turned out to be 0.0036 µM; at Cholinesterase, 0.0062 µM. Moreover, in data set [2], the Activity is under 1%.

Consider `COc1cc(/C=C/C(=O)NCCCCNc2c3c(nc4ccccc24)CCCC3)ccc1O`, for which the IC50 against Acetylcholinesterase stood at 0.0111 µM; against Cholinesterase it was 0.0098 µM.

With `COc1cc(/C=C/C(=O)NCCCNc2c3c(nc4ccccc24)CCCC3)ccc1OCCCCCCO[N+](=O)[O-]`, the values for the IC50 against Acetylcholinesterase and at Cholinesterase were 0.0218 µM and 0.0193 µM, respectively. For the same compound, in data set [2], the Activity was under 1%.

Turning to `COc1cc(/C=C/C(=O)NCCNc2c3c(nc4ccccc24)CCCC3)ccc1OCCO[N+](=O)[O-]`, the values for the IC50 at Acetylcholinesterase and against Cholinesterase were 0.0172 µM and 0.0105 µM, respectively. The same compound yielded an EC50 in the data set with Aorta of 48.8 µM. Besides, in data set [2], the Activity is under 1%.

Regarding `COc1cc(/C=C/C(=O)NCCNc2c3c(nc4ccccc24)CCCC3)ccc1OCCCCCCO[N+](=O)[O-]`, the values for the IC50 at Acetylcholinesterase and at Cholinesterase were 0.0406 µM and 0.0218 µM, respectively. The Activity in data set [2] was under 1%.

`NCCCNc1c2c(nc3ccccc13)CCCC2`: the figures for the IC50 on Acetylcholinesterase and on Cholinesterase were 0.0795 µM and 0.0197 µM, respectively.

As to `COc1cc(/C=C/C(=O)NCCCCCCNc2c3c(nc4ccccc24)CCCC3)ccc1OCCCCCCO[N+](=O)[O-]`, the figures for the IC50 at Acetylcholinesterase and against Cholinesterase were 0.0048 µM and 0.002 µM, respectively. Also, in data set [2], the Activity is under 1%.

For the compound `NCCCCCCCCNc1c2c(nc3ccccc13)CCCC2`, the results for the IC50 at Acetylcholinesterase and against Cholinesterase were 0.0029 µM and 0.0028 µM, respectively.

For `CCCOc1ccc(/C=C/C(=O)NCCCNc2c3c(nc4ccccc24)CCCC3)cc1OC`, the IC50 was 0.0698 µM against Acetylcholinesterase and 0.0403 µM against Cholinesterase. In addition, in the data set with Aorta, the EC50 stood at 838 µM.

In the case of `COc1cc(/C=C/C(=O)NCCCCCCCCNc2c3c(nc4ccccc24)CCCC3)ccc1OCCCCO[N+](=O)[O-]`, the IC50 stood at 0.0094 µM on Acetylcholinesterase and 0.0018 µM against Cholinesterase. The Activity in data set [2] is under 1%.

On to `COc1cc(/C=C/C(=O)NCCCCCCCCNc2c3c(nc4ccccc24)CCCC3)ccc1OCCCCCCO[N+](=O)[O-]`, for which the IC50 at Acetylcholinesterase turned out to be 0.0108 µM; on Cholinesterase it was 0.0019 µM. In addition, the Activity in data set [2] was under 1%.

In the case of `COc1cc(/C=C/C(=O)NCCCCNc2c3c(nc4ccccc24)CCCC3)ccc1OCCCO[N+](=O)[O-]`, the IC50 against Acetylcholinesterase was 0.0443 µM; on Cholinesterase, 0.0236 µM. For the same compound, the Activity in data set [2] is under 1%.

Regarding `COc1cc(/C=C/C(=O)NCCNc2c3c(nc4ccccc24)CCCC3)ccc1O`, the results for the IC50 against Acetylcholinesterase and at Cholinesterase were 0.062 µM and 0.0375 µM, respectively.

For the compound `COc1cc(/C=C/C(=O)NCCCNc2c3c(nc4ccccc24)CCCC3)ccc1OCCO[N+](=O)[O-]`, the 50% inhibitory concentration (IC50) was 0.0144 µM against Acetylcholinesterase and 0.0249 µM at Cholinesterase. The Activity in data set [2] is under 1%.

Take `COc1cc(/C=C/C(=O)O)ccc1OCCCO[N+](=O)[O-]`: the IC50 against Acetylcholinesterase and against Cholinesterase was over 10 µM each time.

Regarding `COc1cc(/C=C/C(=O)O)ccc1OCCCCO[N+](=O)[O-]`, the IC50 on Acetylcholinesterase and against Cholinesterase was over 10 µM throughout.

For the compound `O=[N+]([O-])O[C@H]1CO[C@H]2[C@@H]1OC[C@H]2O[N+](=O)[O-]` [ISOSORBIDE DINITRATE], the EC50 with Aorta was found to be 25.2 µM.

As to `COc1cc(/C=C/C(=O)NCCCCCCNc2c3c(nc4ccccc24)CCCC3)ccc1OCCCCO[N+](=O)[O-]`, the IC50 on Acetylcholinesterase stood at 0.0037 µM; at Cholinesterase, 0.0014 µM. The Activity in data set [2] is under 1%.

`COc1cc(/C=C/C(=O)NCCCCNc2c3c(nc4ccccc24)CCCC3)ccc1OCCCCCCO[N+](=O)[O-]`: the IC50 is 0.0279 µM against Acetylcholinesterase and 0.0117 µM against Cholinesterase. The Activity in data set [2] is under 1%.

On to `COc1cc(/C=C/C(=O)NCCCCCCNc2c3c(nc4ccccc24)CCCC3)ccc1O`, for which the figures for the IC50 at Acetylcholinesterase and against Cholinesterase were 0.0127 µM and 0.0263 µM, respectively. The Activity in data set [2] worked out at 64.7%.
